Data as given in publication PMC11341359, “Assessing the immunogenicity risk of salmon calcitonin peptide impurities using in silico and in vitro methods” (Frontiers in Pharmacology, 2024).
Bridge positions count the residues as written; N and C are the ends. Ends that are not written are not given here.

Tested on: human donor PBMCs
Assay: In vitro immunogenicity protocol (IVIP) naïve T-cell assay, IFNγ FluoroSpot
Type: cell-based
Conditions: individual full-length peptides at 20 μg/mL, 14 days, then 48 h IFNγ FluoroSpot; 16 donors; positive: SFC > 50 per 10^6, SI ≥ 2, p < 0.05 vs medium
Method: To improve the sensitivity of the T-cell assays, fresh (not frozen) blood samples were obtained from human blood donors for the T-cell assays (internal observations). Specifically, PBMCs were isolated from leukocyte reduction filters obtained from the Rhode Island Blood Center (RIBC) in Providence, RI. To confirm the sufficient breadth of HLA coverage in the donor cohort, high-resolution (4-digit) class II HLA haplotyping of donors was performed at the Transplant Immunology Laboratory at Hartford Hospital in Hartford, CT, using the sequence-specific oligonucleotide method (SSP-PCR). […] supertype alleles were expressed by the donor PBMCs used in the assays reported here (HLA DRB1*0301, *0401, *0701, *1101, *1301, and *1501). The HLA identified for the cohort of subjects used in this study is representative of 81.81% of the HLA alleles expressed by the global population. Forty percent of the donors were female and 60% of the donors were male, and their ages ranged from 17 to 83 years. Donor cohort demographic information and HLA types for each donor are provided in Supplementary Figure S1. To measure the naïve T-cell response to salmon calcitonin and impurity peptides, cells were plated at a density of 2.5 × 10^5 cells per well in 96-well U-bottom cell plates in RPMI 1640 cell culture medium supplemented with IL-2 (10 ng/mL) and IL-7 (20 ng/mL) (Gibco). The cells were incubated with […]®, or a synthetic salmon calcitonin peptide, or individual peptide impurities, at a concentration of 20 μg/mL for 14 days at 37°C/5% CO2, with medium exchanges that include cytokine support (IL-2 and IL-7) on days 4, 7, and 11. A concentration of 20 μg/mL (5.8 μM) was the dose selected for the SCT API and the four selected impurities, following a dose-ranging study performed with […]® to determine the maximum dose at which a T-cell response could be observed with no observed toxicity to the cells. The dose-ranging study was performed following the same protocol as described above. The following control antigens were used in the T-cell assays for each of the PBMC samples: positive controls, keyhole limpet hemocyanin (KLH; Thermo Fisher), and the antigenic peptide pool CEFT (ImmunoSpot). In addition, human serum albumin (HSA; Sigma-Aldrich) was used as a negative control antigen, and phytohemagglutinin (PHA; Thermo Fisher), a T-cell mitogen, was used to confirm T-cell functionality. […] Responses were considered positive if (1) the number of spots was at least twice the background (stimulation index [SI] ≥ 2); (2) there were greater than 50 spot-forming cells (SFCs) per 1.0 × 10^6 PBMCs; and (3) responses were statistically different from the media (Student's t-test). Each of the test articles (SCT API, RLD, or impurity peptide) and each of the positive and negative controls were evaluated in nine replicate wells containing donor PBMCs. Following the 14-day incubation, cells in the nine replicate wells were collected, pooled by the treatment condition, and re-plated in triplicate on a precoated anti-human IFNγ FluoroSpot plate (Mabtech) at a concentration of 1.0 × 10^5 cells per well in the presence of an appropriate test article or control reagent in supplemented RPMI 1640 culture medium. The FluoroSpot plates were incubated for 48 h at 37°C/5% CO2. After 48 h, FluoroSpot plates were developed according to the manufacturer's directions. Spots were counted on an iSpot Spectrum FluoroSpot reading system (AID, Strassberg, Germany) using software 7.0, build 14790. Fluorophore-specific spot parameters were defined using the spot size, spot intensity, and spot gradient. A spot separation algorithm was applied for optimal spot detection. Analysis and counting of spots were performed by unbiased experts at ZellNet Consulting, Inc. (Fort Lee, NJ).

Row | Percentage of Responding Donors [%] | Responding Donors | Sequence
1 | 56 | 9 | CSNLSTCVLGKLSQELH (Ac-K) LQTYPRTNTGSGTP (disulfide) [06-LYS-AC18_SCT_18X, full-length SCT impurity, acetylation of lysine 18]
2 | 69 | 11 | CSNLSTCVLGKLSQELHKLQTYPRTNTGSGTTP (disulfide 1-7 (inferred)) [17_ENDO-THR31_SCT, full-length SCT impurity, insertion of threonine at position 31]
3 | 63 | 10 | CSNLSTCVLGKLSQELHKLQTYPRTNTGGSGTP (disulfide 1-7 (inferred)) [12_ENDO-GLY28_SCT, full-length SCT impurity, insertion of glycine at position 28]

Row | Sequence | Percentage of Responding Donors [%] | Responding Donors
4 | CSNLSTCVLGKLSQELHKLETYPRTNTGSGTP (disulfide) (disulfide 1-7 (inferred)) [07_Q20E_SCT, full-length SCT impurity, glutamine 20 deamidated to glutamic acid] | 56 | 9
